Measurements published in PubChem BioAssay (NCI).
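Cells were grown in 96-well plates and exposed to each compound for 48 hours at five concentrations; endpoints were interpolated linearly between bracketing concentrations, or set to the highest concentration if not reached. The concentration for full growth arrest is given as TGI.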 Where a SMILES comes first, the peptide text is derived from it. Bridges are numbered along the chain shown (N, C = ends). The star is where a group is joined. Cbz = O=C(OCc1ccccc1)*

Experiments:
Assay in all cases: growth of human tumour cells (NCI), 48 h
[1] = system: A498 renal
[2] = system: HT29 colon
[3] = system: RPMI-8226 leukemia
[4] = system: K-562 leukemia
[5] = system: SK-OV-3 ovarian
[6] = system: BT-549 breast
[7] = system: SK-MEL-5 melanoma
[8] = system: UACC-62 melanoma
[9] = system: OVCAR-8 ovarian
[10] = system: T-47D breast

SMILES	TGI [1] [µM]	TGI [2] [µM]	TGI [3] [µM]	TGI [4] [µM]	TGI [5] [µM]	TGI [6] [µM]	TGI [7] [µM]	TGI [8] [µM]	TGI [9] [µM]	TGI [10] [µM]
CCOC(=O)C(NC(=O)CC)(Nc1ccc(S(=O)(=O)Nc2nc(C)cc(C)n2)cc1)C(F)(F)F (stereo not drawn)	> 100	> 100	> 100	> 100	> 100	> 100	> 100	> 100	> 100	> 100
CCC(=O)NC(OCC1(CC)COC1)(C(F)(F)F)C(F)(F)F	> 100	> 100	> 100	> 100	> 100	> 100	–	> 100	–	> 100
Cc1cc(S(=O)(=O)Nc2nc3ccccc3n2-c2ccccc2)c(S)cc1Cl	–	–	> 100	> 100	–	> 100	> 100	> 100	> 100	> 100
CCN1CCCC(Nc2cc(C)nc(/N=C(/N)Nc3ccc(Cl)c(Cl)c3)n2)C1 (stereo not drawn)	–	15.7	2.3	0.558	5.24	3.29	5.35	3.31	–	–
COc1nc(OC)nc(-c2cccc(F)c2)n1	34.1	57.9	45.3	53.7	31.4	29.7	29.8	22	69.2	33.8
COC1=CC(=O)c2c(O)c3c(c(O)c2C1=O)C[C@](C)(O)C[C@@H]3O	20.1	8.05	40.2	19.4	41.6	22.5	2.64	4.66	15.7	22.3
COc1cc(OC)c2c(O)c(S(=O)(=O)c3ccc(C)cc3)c(=O)oc2c1	> 100	> 100	> 100	> 100	> 100	> 100	> 100	> 100	> 100	> 100
CC(C)C(C/C=C1/CC(CO)(COC(=O)C2CCCCC2)OC1=O)C(C)C (stereo not drawn)	76.2	75.4	–	> 100	> 100	54.8	> 100	> 100	32.7	45.9
COC(=O)C1CCCCNC(=O)CCC(NC(=O)OCc2ccccc2)C(=O)N1 (stereo not drawn) (Cbz-Glu-Lys-OMe; lactam 1-2; configuration not given here)	> 100	> 100	> 100	> 100	> 100	–	> 100	> 100	> 100	> 100
N=C(N)SCCCN	> 100	62.3	> 68.9	> 66.8	73.4	> 60.9	30.1	35	> 100	> 100
Oc1ccc(Cl)cc1C1=N/C(=N\C/N=C2\N=C(c3cc(Cl)ccc3O)CC(c3ccccc3)N2)NC(c2ccccc2)C1 (stereo not drawn)	> 100	> 100	> 100	> 100	> 100	> 100	> 100	> 100	> 100	–
Cc1ccc(SC[C@@]2(C(F)F)NC(=O)NC2=O)cc1	> 100	> 100	> 100	> 100	> 100	> 100	> 100	> 100	> 100	> 100
Cn1c2c(c3ccccc31)CCN1C(=O)C3SC21C1C(=O)N(c2ccccc2)C(=O)C31 (stereo not drawn)	> 89.7	> 100	> 100	> 100	> 100	> 100	> 73.4	> 86.3	> 100	> 100
C[C@@H]1CC[C@@H](C)[C@](C)(CCc2ccoc2)C/C=C\C=C/1C(=O)O	> 50	> 50	–	> 50	> 50	> 50	> 50	> 50	> 50	–
O=S1(=O)C(c2ccccc2)=C(O)c2ccccc21	> 100	> 100	> 100	> 100	–	> 100	> 100	> 100	> 100	> 100
O=c1[nH]cnc2sc(=S)c3c(c12)CCC3	–	> 100	43	29.2	> 100	–	42.1	> 100	> 100	> 100
[N-]=[N+]=NC[C@H]1OCO[C@H](CN=[N+]=[N-])[C@H]2OCCOCCOc3ccccc3OCCOCCO[C@@H]21	–	> 100	> 100	> 100	> 100	> 100	> 100	> 100	> 100	> 100
Cc1ccnc(NC(=S)Nc2cccc(Cl)c2)c1	> 100	> 100	> 100	> 100	> 100	> 100	> 100	> 100	> 100	> 100
CCOP(=O)(OCC)C1(O)CC(n2cc(C)c(=O)[nH]c2=O)OC1CO (stereo not drawn)	> 100	> 100	> 100	> 100	> 100	–	> 100	> 100	> 100	> 100
COc1cccc(NC(=O)CC(=O)NNCC(=O)Nc2nnc(-c3ccc(N(CCC#N)S(=O)(=O)c4ccccc4)cc3)s2)c1	–	–	> 100	> 100	> 100	–	> 100	> 100	> 100	–
N#Cc1c(Nc2nc3ccccc3s2)c2ccccc2n2c1nc1ccccc12	> 100	> 100	> 100	–	–	> 100	> 100	> 100	> 100	> 100
Cc1cc(O)ccc1C1(c2ccc(F)cc2)OC(=O)c2ccccc21 (stereo not drawn)	32.9	18	> 62.1	> 72.9	14.2	0.653	24.3	16.9	2.05	0.974
S=C(N/N=C\c1ccccn1)N(Cc1ccccn1)Cc1ccccn1	–	16.2	> 38.8	> 100	17.9	12.9	16.8	> 23.1	12.7	> 40.4
C=C(Br)CNCC(=C)Br	> 100	> 100	> 100	> 100	> 100	–	> 100	> 100	> 100	> 100

SMILES	TGI [1] [µM]	TGI [2] [µM]	TGI [3] [µM]	TGI [4] [µM]	TGI [5] [µM]	TGI [6] [µM]	TGI [7] [µM]	TGI [8] [µM]	TGI [9] [µM]	TGI [10] [µM]
CSc1nc(C#N)c(N)n1C	> 100	–	> 100	> 100	> 100	> 100	> 100	> 100	> 100	> 100
CSc1ncc2c(n1)-c1ccccc1OC2NC(C)(C)C (stereo not drawn)	7.36	> 100	> 100	> 100	> 100	> 100	–	> 100	> 100	> 100
CN(C)C(=O)C(F)(F)C(c1ccc(Br)cc1)C1C(=O)N(C)C(=O)N(C)C1=O (stereo not drawn)	> 100	–	> 100	> 100	> 100	> 100	> 100	> 100	–	> 100
OC(CCN1CCN(CCOC(c2ccccc2)c2ccccc2)CC1)c1ccc(Br)cc1 (stereo not drawn)	22	16.5	–	–	27	26.1	12.6	22.8	19.9	33.4
CC(C)(C)OC(=O)NCC(=O)NC1C/C(=N\O)c2sccc21 (stereo not drawn)	> 100	> 100	–	> 100	> 100	> 100	> 100	> 100	> 100	> 100
CC(=O)c1ccc(N2CCN(C3=CC(=O)c4c(O)ccc(O)c4C3=O)CC2)cc1	> 100	> 100	> 100	> 100	–	–	–	> 100	> 100	> 100
CCCCc1ccc(-n2sc3ncccc3c2=O)cc1	–	33.1	> 100	–	90.5	35.7	26.4	43.9	45.7	45.7
CN1Cc2c(nc(-c3ccc(Br)cc3)c[n+]2[O-])N(C)C1	> 100	> 100	–	> 100	> 100	–	> 100	–	> 100	–
C=CC(C)(C)c1cc([C@@H]2COc3cc(O)ccc3C2=O)c(O)c(O)c1OC	–	47.4	–	> 100	61	32.7	41.1	34.4	30.9	62.3
Nc1ccc(-c2nc3ccc(F)cc3s2)cc1	80.3	> 100	91.7	> 100	–	> 100	37.8	31.3	> 100	–
Cc1nn(C)c2nc3ccc(Cl)cc3c(-c3ccccc3)c12	> 100	> 100	> 100	> 100	> 100	> 100	–	> 100	> 100	> 100
COc1ccc2c(c1)CC1Cc3ccccc3CCN1C2 (stereo not drawn)	–	> 100	92.3	> 100	> 100	> 100	41.7	> 100	> 100	> 100
CNC(=S)N/N=C(\C)c1nc2ncccc2[nH]1	> 100	> 100	> 100	> 100	> 100	99.5	> 100	–	> 100	> 100
COc1cc(/C=N\NC(=O)C[N+](C)(C)C)cc(OC)c1OC	–	> 10	> 10	> 10	> 10	> 10	> 10	> 10	> 10	> 10
Cc1c(C#N)c2nnn(-c3ccccc3)c(=O)n2c1-c1ccccc1	> 25.1	–	14.8	0.801	> 29.5	> 100	16.5	> 100	> 100	87.4
COc1cc(OC)cc(-n2c(N)c(-c3nc4ccccc4n3C)c3ccc([N+](=O)[O-])cc3c2=O)c1	> 100	> 100	> 100	> 100	–	> 100	> 100	> 100	> 100	> 100
COC(=O)C1=C(C)N(NC(=O)c2ccccc2)C2(O)CCCC(=O)C12C (stereo not drawn)	> 100	> 100	> 100	–	> 100	–	> 100	> 100	> 100	–
O=C1c2ccccc2-c2nc(-c3ccccc3)cc3c2c1nc1ccccc13	–	25.9	22	> 100	55.2	42.9	13.3	9.7	66.8	> 100
N#CC1(c2ccccc2)CCN(C2(c3ccccc3)CCCCC2)CC1	–	> 100	> 100	> 100	> 100	> 100	> 100	> 100	> 100	> 100
O=c1[nH]c2cc3cccnc3c(Cl)c2nc1CBr	–	35.9	26.3	> 100	65.5	89.8	35.6	25.2	44.4	28.3
COc1cc2c(cc1C)NC(=O)/C2=C\c1ccncc1	–	> 100	–	> 100	13.7	–	8.47	21.1	5.92	16.8
Cc1ccc(S(=O)(=O)c2ccc([N+](=O)[O-])o2)cc1	33.9	3.2	–	–	35.2	6.16	23	6.17	1.82	6.24
CN(/N=N/c1nc[nH]c1C(N)=O)C1CCCCC1	> 100	> 100	> 100	–	> 100	–	> 100	> 100	> 100	–
CN(C)Cc1cc(C(=O)/C=C/c2cccc(Cl)c2)cc(CN(C)C)c1O	14.2	16.6	7.73	11.4	–	25.8	6.92	22.3	61.3	19.9
